Values quoted from earlier work, collected in patent US11395811B2, “Compositions comprising a fatty acid oil mixture comprising EPA and DHA in free acid form and a surfactant, and methods and uses thereof” (ProNova BioPharma Norge AS, priority 2009, dated 2022).
Where two headings read alike, the source gives them in different places.

Row | Substance | HLB Value (Brij surfactants, Table 2) | HLB Value (Myrj surfactants, Table 5) | further results
1 | Polyoxyethylene (2) cetyl ether [Brij ® 52] | 5.3 |  | 
2 | Polyoxyethylene (2) oleyl ether [Brij ® 92V] | 4.9 |  | 
3 | Polyoxyethylene (2) oleyl ether [Brij ® 93] | 4 |  | 
4 | Polyoxyethylene(4) lauryl ether [Brij ® 30] | 9.7 |  | 
5 | polyethylene glycol oleyl ether [Brij ® 96V] | 12.4 |  | 
6 | polyoxyethylene (2) stearyl ether [Brij ® 72] | 4.9 |  | 
7 | polyoxyethylene (20) sorbitan monolaurate [Tween ® 20] |  |  | HLB Value (Tween surfactants, Table 4): 16.0
8 | polyoxyethylene (100) stearyl ether [Brij ® 700] | 18 |  | 
9 | polyoxyethylene monostearate [Myrj ® 45] |  | 11.1 | 
10 | polyoxyethylene monostearate [Myrj ® 49] |  | 15.0 | 
11 | polyoxyethylene monostearate [Myrj ® 52] |  | 16.9 | 
12 | polyoxyethylene monostearate [Myrj ® 53] |  | 17.9 | 
